# Measurements taken from patent publication US20050215614A1, “Substituted indoles and their use as hcv inhibitors” (Rigel Pharmaceuticals, Inc., priority 2003, published 2005).
# Test system: HCV replicon
# Experiment: HCV Replicon Assay (luciferase, 5-2 Luc replicon cells)
# Format: cell-based
# Details: 5-2 Luc replicon cells (Huh7), 24-48 hours with compound, luciferase counts
# Method: Actively dividing 5-2 Luc replicon cells were seeded at the density of 5000-7500 cells/well in the volume of 90 μl/well into 96 well plate(s). The cells were then incubated at 37° C. and 5% CO2 for 24 hours. The 5-2 cells are replicon cells licensed from Ralf Bartenschlager (Germany) and have a self-replicating RNA molecule in the Huh7 cell; the RNA contains HCV non-structural proteins that make the self-replication possible.
# Various concentrations of compounds (in the volume of 10 μl) were added into each well 24 hours after seeding the cells. The cells were incubated for another 24-48 hours before luciferase assay.
# After incubating the 5-2 Luc replicon cells with the compounds for 24-48 hours, media were aspirated from each well and Bright-Glo (Promega) luciferase assay reagents were added to each well according to the manufacturer′s manual. Briefly, the Bright-Glo reagent was diluted with equal volume of PBS and an aliquote (100 μl) was added to each well. After incubating the plate at room temperature for 5 minutes, luciferase counts were taken using a luminometer.
row,SMILES,Activity (concentration of inhibitory activity)
1,"CC(C)(C)c1cc2cc(NC(=O)Cc3cccc4ccccc34)ccc2[nH]1 [Compound 5a, 2-t-Butyl-5-(naphth-1-yl-ethanoyl)aminoindole]",b (“b” indicates activity is at a concentration greater than 10 micromolar)
2,"CC(C)(C)c1cc2cc(NC(=O)Cc3cccc([N+](=O)[O-])c3)ccc2[nH]1 [Compound 5b, 2-t-Butyl-5-(3-nitrophenylethanoyl)aminoindole]",b (“b” indicates activity is at a concentration greater than 10 micromolar)
3,"CC(C)(C)c1cc2cc(NC(=O)C3CCCC3)ccc2[nH]1 [Compound 5c, 2-t-Butyl-5-(cyclopentanecarbonyl)aminoindole]",a (“a” indicates inhibitory activity at a concentration of less than 10 micromolar)
4,"CC(C)(C)c1cc2cc(NC(=O)C3(c4ccc(Cl)cc4)CCCC3)ccc2[nH]1 [Compound 5d, 2-t-Butyl-5-(1-(4chlorophenyl)-1-cyclopentanecarbonyl)aminoindole]",b (“b” indicates activity is at a concentration greater than 10 micromolar)
5,"CC(C)(C)c1cc2cc(NC(=O)c3c(F)cccc3F)ccc2[nH]1 [Compound 5e, 2-t-Butyl-5-(2′,6′-difluorophenylcarbonyl)aminoindole]",a (“a” indicates inhibitory activity at a concentration of less than 10 micromolar)
6,"CC(C)(C)c1cc2cc(NC(=O)c3ccc(Cl)cc3Cl)ccc2[nH]1 [Compound 5f, 2-t-Butyl-5-(2′,4′-dichlorophenylcarbonyl)aminoindole]",a (“a” indicates inhibitory activity at a concentration of less than 10 micromolar)
7,"Cc1ccsc1C(=O)Nc1ccc2[nH]c(C(C)(C)C)cc2c1 [Compound 5g, 2-t-Butyl-5-(3-methylthiophene-2-carbonyl)aminoindole]",a (“a” indicates inhibitory activity at a concentration of less than 10 micromolar)
8,"CC(C)(C)c1cc2cc(NC(=O)C(Cl)Cl)ccc2[nH]1 [Compound 5h, 2-t-Butyl-5-dichloroacetamidoindole]",a (“a” indicates inhibitory activity at a concentration of less than 10 micromolar)
9,"Cc1cn(C(=O)c2c(Cl)cccc2Cl)c2ccc(NC(=O)C3CCCC3)cc12 [Compound 9a, 5-(Cyclopentanecarbonyl)amino-1-(2′,6′-dichlorobenzoyl)-3-methylindole]",a (“a” indicates inhibitory activity at a concentration of less than 10 micromolar)
10,"CCCC(=O)Nc1ccc2c(c1)c(C)cn2C(=O)c1c(Cl)cccc1Cl [Compound 9b, 1-(2′,6′-Dichlorobenzoyl)-3-methyl-5-(n-propanecarbonyl)aminoindole]",a (“a” indicates inhibitory activity at a concentration of less than 10 micromolar)
11,"Cc1cn(C(=O)c2c(Cl)cccc2Cl)c2ccc(NC(=O)C3CCC3)cc12 [Compound 9c, 5-(Cyclobutanecarbonyl)amino-1-(2′,6′-dichlorobenzoyl)-3-methylindole]",a (“a” indicates inhibitory activity at a concentration of less than 10 micromolar)
12,"Cc1cn(C(=O)c2c(Cl)cccc2Cl)c2ccc(NC(=O)C3CC3)cc12 [Compound 9d, 5-(Cyclopropanecarbonyl)amino-1-(2′,6′-dichlorobenzoyl)-3-methylindole]",a (“a” indicates inhibitory activity at a concentration of less than 10 micromolar)
13,"CCCCC(=O)Nc1ccc2c(c1)c(C)cn2C(=O)c1c(Cl)cccc1Cl [Compound 9e, 5-(n-Butanecarbonyl)amino-1-(2′,6′-dichlorobenzoyl)-3-methylindole]",a (“a” indicates inhibitory activity at a concentration of less than 10 micromolar)
14,"C/C=C/C(=O)C(=O)Nc1ccc2c(c1)c(C)cn2C(=O)c1c(Cl)cccc1Cl [Compound 9f, 5-(trans-Crotonylcarbonyl)amino-1-(2′,6′-dichlorobenzoyl)-3-methylindole]",a (“a” indicates inhibitory activity at a concentration of less than 10 micromolar)
15,"Cc1c(C)n(C(=O)c2c(Cl)cccc2Cl)c2ccc(NC(=O)C3CCCCC3)cc12 [Compound 13a, 5-(Cyclohexanecarbonyl)amino-1-(2′,6′-dichlorobenzoyl)-2,3-dimethylindole]",a (“a” indicates inhibitory activity at a concentration of less than 10 micromolar)
16,"Cc1c(C)n(C(=O)c2c(Cl)cccc2Cl)c2ccc(NC(=O)C3CCCC3)cc12 [Compound 13b, 5-(Cyclopentanecarbonyl)amino-1-(2′,6′-dichlorobenzoyl)-2,3-dimethylindole]",a (“a” indicates inhibitory activity at a concentration of less than 10 micromolar)

row,SMILES,Activity (concentration of inhibitory activity)
1,"Cc1c(C)n(C(=O)c2c(Cl)cccc2Cl)c2ccc(NC(=O)C3CCC3)cc12 [Compound 13c, 5-(Cyclobutanecarbonyl)amino-1-(2′,6′-dichlorobenzoyl)-2,3-dimethylindole]",a (“a” indicates inhibitory activity at a concentration of less than 10 micromolar)
2,"Cc1c(C)n(C(=O)c2c(Cl)cccc2Cl)c2ccc(NC(=O)C3CC3)cc12 [Compound 13d, 5-(Cyclopropanecarbonyl)amino-1-(2′,6′-dichlorobenzoyl)-2,3-dimethylindole]",a (“a” indicates inhibitory activity at a concentration of less than 10 micromolar)
3,"CCCCC(=O)Nc1ccc2c(c1)c(C)c(C)n2C(=O)c1c(Cl)cccc1Cl [Compound 13e, 5-(n-Butanecarbonyl)amino-1-(2′,6′-dichlorobenzoyl)-2,3-dimethylindole]",a (“a” indicates inhibitory activity at a concentration of less than 10 micromolar)
4,"Cc1cc2cc(NC(=O)C3CCCCC3)ccc2n1C(=O)c1c(Cl)cccc1Cl [Compound 16a-2, 5-Cyclohexanecarbonylamino-1-(2′,6′-dichlorobenzoyl)-2-methylindole]",a (“a” indicates inhibitory activity at a concentration of less than 10 micromolar)
5,"Cc1cc2cc(NC(=O)C3CCC3)ccc2n1C(=O)c1c(Cl)cccc1Cl [Compound 16a-3, 5-Cyclobutanecarbonylamino-1-(2′,6′-dichlorobenzoyl)-2-methylindole]",a (“a” indicates inhibitory activity at a concentration of less than 10 micromolar)
6,"Cc1cc2cc(NC(=O)C3CC3)ccc2n1C(=O)c1c(Cl)cccc1Cl [Compound 16a-4, 5-Cyclopropanecarbonylamino-1-(2′,6′-dichlorobenzoyl)-2-methylindole]",a (“a” indicates inhibitory activity at a concentration of less than 10 micromolar)
7,"Cc1cc2cc(NC(=O)C(C)C)ccc2n1C(=O)c1c(Cl)cccc1Cl [Compound 16a-5, 1-(2′,6′-Dichlorobenzoyl)-5-(2-methylpropanoyl)amino-2-methylindole]",a (“a” indicates inhibitory activity at a concentration of less than 10 micromolar)
8,"CCC(C)C(=O)Nc1ccc2c(c1)cc(C)n2C(=O)c1c(Cl)cccc1Cl (stereo not shown) [Compound 16a-6, 1-(2′,6′-Dichlorobenzoyl)-5-(2-methylbutanoyl)amino-2-methylindole]",a (“a” indicates inhibitory activity at a concentration of less than 10 micromolar)
9,"CCCCC(=O)Nc1ccc2c(c1)cc(C)n2C(=O)c1c(Cl)cccc1Cl [Compound 16a-7, 1-(2′,6′-Dichlorobenzoyl)-5-(n-pentanoyl)amino-2-methylindole]",a (“a” indicates inhibitory activity at a concentration of less than 10 micromolar)
10,"C/C=C/C(=O)Nc1ccc2c(c1)cc(C)n2C(=O)c1c(Cl)cccc1Cl [Compound 16a-8, 5-(trans-Crotonyl)amino-1-(2′,6′-dichlorobenzoyl)-2-methylindole]",a (“a” indicates inhibitory activity at a concentration of less than 10 micromolar)
11,"CCC(CC)C(=O)Nc1ccc2c(c1)cc(C)n2C(=O)c1c(Cl)cccc1Cl [Compound 16a-9, 1-(2′,6′-Dichlorobenzoyl)-5-(2-ethylbutanoyl)amino-2-methylindole]",a (“a” indicates inhibitory activity at a concentration of less than 10 micromolar)
12,"Cc1cc2cc(NC(=O)c3cccnc3)ccc2n1C(=O)c1c(Cl)cccc1Cl [Compound 16a-10, 1-(2′,6′-Dichlorobenzoyl)-5-(3-pyridylcarbonyl)amino-2-methylindole]",a (“a” indicates inhibitory activity at a concentration of less than 10 micromolar)
13,"Cc1ccsc1C(=O)Nc1ccc2c(c1)cc(C)n2C(=O)c1c(Cl)cccc1Cl [Compound 16a-11, 1-(2′,6′-Dichlorobenzoyl)-5-(3-methyl-2-thiophenylcarbonyl)amino-2-methylindole]",a (“a” indicates inhibitory activity at a concentration of less than 10 micromolar)
14,"COc1cscc1C(=O)Nc1ccc2c(c1)cc(C)n2C(=O)c1c(Cl)cccc1Cl [Compound 16a-12, 1-(2′,6′-Dichlorobenzoyl)-5-(4-methoxy-3-thiophenylcarbonyl)amino-2-methylindole]",a (“a” indicates inhibitory activity at a concentration of less than 10 micromolar)
15,"Cc1cc2cc(NC(=O)Cc3cccnc3)ccc2n1C(=O)c1c(Cl)cccc1Cl [Compound 16a-13, 1-(2′,6′-Dichlorobenzoyl)-5-(3-pyridyl-2-acetamido)-2-methylindole]",a (“a” indicates inhibitory activity at a concentration of less than 10 micromolar)
